Measured values: patent US8765688B2, “Anti-dandruff compositions containing peptides” (priority 2007, dated 2014)
Numbered stars: 1 amine (or outer) side, 2 acyl side, 3 side chain; on linkers, the order of the positions; unused ones are H or OH. Bridge positions count the residues as written; N and C are the ends. Square brackets hold non-standard residues; d marks the D form. Ends that are not written are not given here. Peptide text beside a SMILES is read from it. * marks the point of attachment. Orn(4R-OH,5R-OH) = O=C([C@H](C[C@@H](O)[C@@H](O)N[*:3])N[*:1])[*:2]; hTyr(3S-OH,4S-OH) = N[C@H](C(=O)O)[C@H](O)[C@@H](O)c1ccc(O)cc1; Pro(3S-OH,4S-Me) = C[C@H]1CN[C@H](C(=O)O)[C@H]1O; Benzoyl(4-octyloxy) = CCCCCCCCOc1ccc(C(=O)*)cc1; Hyp = O=C(O)[C@@H]1C[C@@H](O)CN1

Experiments:
Malassezia furfur [1] = conditions: cited from earlier work; for growth inhibition of M. furfur (in words): 25 μM, Lopez-Garcia et al., 2006
Malassezia furfur [2] = experiment: Inhibition of Malassezia furfur growth test (optical density and colony-forming units), Examples 1 and 2; type: cell-based; conditions: solution in DMSO, 25 μM; for colony-forming units: 10 μl plated out
Method: Growth medium: M472-Pitysporum medium according to DSMZ
(§1) The components were sterilized at 121° C., 1 bar superatmospheric pressure for 20 minutes.
2 g/l of olive oil were sterilized by filtration and, after autoclaving, added to the other components.
(§2) Since it was a two-phase medium, the complete medium was treated with sonication in order to enlarge the phase boundary.
For agar plates, if appropriate, […] of agar agar were added to the medium.
The growth test was carried out as follows: A shake flask with M472-Pitysporum medium was inoculated with M. furfur and incubated with shaking overnight at 30° C. and 200 rpm.
A 96-well microtiter plate was filled with in each case 100 μl of M472-Pitysporum medium and inoculated with M. furfur suspension of the overnight culture. The M. furfur suspension was adjusted at the start of the experiment to an optical density, measured at 620 nm, of 0.02. The concentrates of the inhibitor solutions were 1 mM in water or DMSO.
(§3) The growth of the following batches was compared by measuring the optical density:
M. furfur suspension without the addition of an inhibitor.
This was to exclude that an inhibition is attributable merely to the effect of the DMSO, or a false positive result being observed.
M. furfur suspension and addition of an aqueous P18 solution with a final concentration of 25 μM.
M. furfur suspension and addition of a P18 solution in DMSO with a final concentration of 25 μM.
M. furfur suspension and addition of a zinc pyrithione (ZPT, Sigma-Aldrich) solution in DMSO with a final concentration of 25 μM.
M. furfur suspension and addition of a Ketoconazole (Sigma-Aldrich) solution in DMSO with a final concentration of 25 μM.
(§4) The microtiter plate was incubated with shaking at 30° C.
[…] The colony-forming units (CFU) were then determined by plating out 10 μl from each of the suspensions and, after incubation for 6 days, counting the colonies. The CFU was determined in order to exclude an influence of the two-phase medium and also the growth form of M. furfur on the optical density. […] The experiments were carried out at least in triple determinations and independently repeated.
For this, the procedure was as described in Example 1. 1 mM stock solutions of the fusion peptide P18, magainin 2 and cecropin A in DMSO were prepared. The final concentrations of the peptides in the growth experiments were 25 μM. The same amount of DMSO was likewise added to the suspension without inhibitor in order to exclude a growth-inhibiting effect of the DMSO.
The growth of the following mixtures was compared by measuring the optical density:
This was to exclude that an inhibition is attributable merely to the effect of the DMSO.
M. furfur suspension and addition of a magainin 2 solution in DMSO with a final concentration of 25 μM.
M. furfur suspension and addition of a cecropin A solution in DMSO with a final concentration of 25 μM.
M. furfur suspension and addition of a peptide P18 (SEQ ID NO3) solution in DMSO with a final concentration of 25 μM.

Candida albicans = conditions: cited from earlier work
Malassezia furfur [3] = experiment: Growth inhibition of Malassezia furfur with equal concentrations (% by weight) of P18, Zincpyrithione, Climbazole and Ketoconazole, CFU; type: cell-based; conditions: 362 μM final conc., mean ± SD
Method: (§5) Growth medium: M472-Pityrosporum medium according to DSMZ
as §1
(§6) 2 g/L of olive oil (sterilized by filtration and, after autoclaving, added to the other components)
as §2
(§7) For agar plates, if appropriate, 150 g/L of agar agar were added to the medium.
(§8) The growth test was carried out as follows: A shake flask with M472-Pityrosporum medium was inoculated with M. furfur and incubated with shaking overnight at 30° C. and 200 rpm.
A 96-well microtiter plate was filled with in each case 100 μl of M472-Pityrosporum medium and inoculated with M. furfur suspension of the overnight culture. The M. furfur suspension was adjusted at the start of the experiment to an optical density, measured at 600 nm, of 0.02. The concentrates of the inhibitor solutions were 1 mM in DMSO for the peptide P18 and 10 mM in DMSO for Zincpyrithione, Ketoconazole and Climbazole. The DMSO final concentrations were maintained the same in all experiments. This means that a corresponding volume of DMSO was added to the mixture in the case of a higher concentration of Zincpyrithione, Ketoconazole or Climbazole concentrate in order to ensure comparability to the mixtures containing P18.
as §3
M. furfur suspension and addition of P18 solution with a final concentration of 50 μM (equal to 0.0115% (w/w))
M furfur suspension and addition of Zincpyrithione (ZPT) solution with a final concentration of 362 μM (comparison to the mixture containing 50 μM of the peptide P18)
M furfur suspension and addition of Ketoconazole solution with a final concentration of 216 μM (comparison to the mixture containing 50 μM of the peptide P18)
M furfur suspension and addition of Climbazole solution with a final concentration of 390 μM (comparison to the mixture containing 50 μM of the peptide P18)
as §4
After 24 hours of incubation, the colony-forming units (CFU) were determined by plating out 10 μl of medium from each of the suspensions on agar plates. After incubation for 6 days, the colonies on the plates were counted. The CFU was determined in order to exclude an influence of the two-phase medium and also the growth form of M. furfur on the optical density. The experiments were carried out in at least two independent experiments, each with double determination.

Malassezia furfur [4] = experiment: Incubation times with P18 from 5 minutes to 1 hour, CFU of M. furfur, compared to Zincpyrithione; type: cell-based
Method: Since growth inhibition of M. furfur by the peptide P18 (P18 peptide sequence H-KWKLFKKIPKFLHLAKKF-NH2; SEQ ID NO: 3) had so far only been analyzed over incubation times of more than one hour, now the effect of the peptide P18 within the first minutes of incubation (5 minutes, 10 minutes and 20 minutes) up to the first hour after adding to the M. furfur overnight culture was tested and compared to the reference substance Zincpyrithione (Sigma Aldrich). For this, the peptide P18 and the reference substance Zincpyrithione were used in concentrations of 100 μM, 200 μM and 500 μM. The experiments were carried out as follows:
as §5, §1, §6, §2, §7, §8
A 96-well microtiter plate was filled with in each case 100 μl of M472-Pityrosporum medium and inoculated with M. furfur suspension of the overnight culture. The M. furfur suspension was adjusted at the start of the experiment to an optical density, measured at 600 nm, of 0.1.
The growth of the following batches was compared:
M. furfur suspension and addition of the peptide P18 with a final concentration of 100 μM, plating out after 5 minutes, 10 minutes, 20 minutes and 60 minutes
M. furfur suspension and addition of the peptide P18 with a final concentration of 200 μM plating out after 5 minutes, 10 minutes, 20 minutes and 60 minutes
M. furfur suspension and addition of the peptide P18 with a final concentration of 500 μM plating out after 5 minutes, 10 minutes, 20 minutes and 60 minutes
M. furfur suspension and addition of Zincpyrithione with a final concentration of 100 μM plating out after 5 minutes, 10 minutes, 20 minutes and 60 minutes
M. furfur suspension and addition of Zincpyrithione with a final concentration of 200 μM plating out after 5 minutes, 10 minutes, 20 minutes and 60 minutes
M. furfur suspension and addition of Zincpyrithione with a final concentration of 500 μM plating out after 5 minutes, 10 minutes, 20 minutes and 60 minutes
as §4
After the incubation times indicated above, the colony-forming units (CFU) were determined by plating out 50 μl from each of the suspensions and, after incubation for 6 days, counting the colonies. The CFU was determined in order to exclude an influence of the two-phase medium and also the growth form of M. furfur on the optical density. The experiments were independently repeated.

basic phytosphingosines
concentration inhibiting M. furfur (Malassezia furfur [1]; Nenoff et al., 2002): 6250 µg/mL

magainin 2 [reference compound]
growth inhibition of M. furfur (in words) (Malassezia furfur [1]): comparably better effect
CFU (Malassezia furfur [2]; incubation time 64 h): >10 000
CFU (Malassezia furfur [2]; incubation time 72 h): >10 000

Cecropin P1 (SWLSKTAKKLENSAKKRISEGIAIAIQGGPR; Cecropin-P1; UniProt P14661 14-44, looked up)
growth inhibition of M. furfur (in words) (Malassezia furfur [1]): moderate antifungal effect

phytosphingosine salts
sensitivity of M. furfur (in words) (Malassezia furfur [1]; Nenoff et al., 2002): appeared to be resistant

phytosphingosines
concentrations inhibiting Candida albicans (Candida albicans; Nenoff et al., 2002): 152 to 269 µg/mL

zinc pyrithione [ZPT, reference compound]
colony-forming units (Malassezia furfur [3]; incubation time 24 h): 60 ± 40
colony-forming units (Malassezia furfur [3]; incubation time 40 h): 26 ± 7
optical density (Malassezia furfur [2]; incubation time 0 h): 0
optical density (Malassezia furfur [2]; incubation time 16 h): 0
colony-forming units (Malassezia furfur [2]; incubation time 16 h): 42
optical density (Malassezia furfur [2]; incubation time 24 h): 0
colony-forming units (Malassezia furfur [2]; incubation time 24 h): 22
optical density (Malassezia furfur [2]; incubation time 40 h): 0
colony-forming units (Malassezia furfur [2]; incubation time 40 h): 28
colony-forming units after the indicated incubation time (Malassezia furfur [4]; final concentration 100 μM, 5 minutes): >1000
colony-forming units after the indicated incubation time (Malassezia furfur [4]; final concentration 100 μM, 10 minutes): >1000
colony-forming units after the indicated incubation time (Malassezia furfur [4]; final concentration 100 μM, 20 minutes): >1000
colony-forming units after the indicated incubation time (Malassezia furfur [4]; final concentration 100 μM, 60 minutes): >1000
colony-forming units after the indicated incubation time (Malassezia furfur [4]; final concentration 200 μM, 5 minutes): >1000
colony-forming units after the indicated incubation time (Malassezia furfur [4]; final concentration 200 μM, 10 minutes): >1000
colony-forming units after the indicated incubation time (Malassezia furfur [4]; final concentration 200 μM, 20 minutes): >1000
colony-forming units after the indicated incubation time (Malassezia furfur [4]; final concentration 200 μM, 60 minutes): >1000
colony-forming units after the indicated incubation time (Malassezia furfur [4]; final concentration 500 μM, 5 minutes): >1000
colony-forming units after the indicated incubation time (Malassezia furfur [4]; final concentration 500 μM, 10 minutes): >1000
colony-forming units after the indicated incubation time (Malassezia furfur [4]; final concentration 500 μM, 20 minutes): >1000
colony-forming units after the indicated incubation time (Malassezia furfur [4]; final concentration 500 μM, 60 minutes): >1000

CC(=O)N1CCN(c2ccc(OCC3COC(Cn4ccnc4)(c4ccc(Cl)cc4Cl)O3)cc2)CC1 (stereo not drawn) [Ketoconazole, reference compound]
optical density (Malassezia furfur [2]; incubation time 0 h): 0
optical density (Malassezia furfur [2]; incubation time 16 h): 0
colony-forming units (Malassezia furfur [2]; incubation time 16 h): 80
optical density (Malassezia furfur [2]; incubation time 24 h): 0.004
colony-forming units (Malassezia furfur [2]; incubation time 24 h): 22
optical density (Malassezia furfur [2]; incubation time 40 h): 0.013
colony-forming units (Malassezia furfur [2]; incubation time 40 h): 90

cecropin A (KWKLFKKIEKVGQNIRDGIIKAGPAVAVVGQATQIAK; ends and bridges not checked; UniProt P01507 27-63, looked up) [peptide of 37 amino acids from Hyalophora cecropia, reference compound]
CFU (Malassezia furfur [2]; incubation time 64 h): >5000
CFU (Malassezia furfur [2]; incubation time 72 h): >5000

CCCCCCCCOc1ccc(C(=O)N[C@H]2C[C@@H](O)[C@@H](O)NC(=O)[C@@H]3[C@@H](O)[C@@H](C)CN3C(=O)[C@H]([C@@H](C)O)NC(=O)[C@H]([C@H](O)[C@@H](O)c3ccc(O)cc3)NC(=O)[C@@H]3C[C@@H](O)CN3C(=O)[C@H]([C@@H](C)O)NC2=O)cc1 [cilofungin] ({Benzoyl(4-octyloxy)}-[Orn(4R-OH,5R-OH)]T[Hyp][hTyr(3S-OH,4S-OH)]T[Pro(3S-OH,4S-Me)]; lactam 1-C)
inhibition of M. furfur (in words) (Malassezia furfur [1]; 0.62 μg/ml, Hanson et al. 1989): not inhibited
C. albicans strains that did not grow (Candida albicans; cilofungin concentration of 0.62 μg/ml, Hanson et al. 1989): 76%
